# According to patent US20230017045A1, “PYRIDINE AND PYRIMIDINE CARBOXYLATE HERBICIDES AND METHODS OF USE THEREOF” (Dow AgroSciences LLC, priority 2017, published 2023):
# System: test plant species
# Test: Post-emergent herbicidal activity test (greenhouse, foliar spray, visual growth reduction)
# Assay type: in vivo
# Conditions: post-emergence, 336 h, ECHCG: barnyardgrass (Echinochloa crus-galli), 140 g ai/ha, 14 days after application, read-out: Visual Growth Reduction (%) 14 Days After Application, ECHCG
# Summary of the method: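 Greenhouse plants at first–second true leaf stage sprayed overhead at 187 L/ha with compound in acetone/water/isopropanol/DMSO/crop oil/X-77 carrier; controls received solvent blank. Injury rated visually after 14 d on a 0–100% scale versus untreated and control plants, converted to growth reduction.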
row,Structure (SMILES),pest or weed control at 140 g/ha [%]
1,"COC(=O)c1nc(-c2ccc(N)cc2Cl)c(F)cc1Cl [F358, Methyl 6-(4-amino-2-chlorophenyl)-3-chloro-5-fluoropicolinate]",0 to 29
2,"COc1c(-c2nc(C(=O)O)c(Cl)cc2F)ccc(C(F)F)c1F [F230, 3-Chloro-6-(4-(difluoromethyl)-3-fluoro-2-methoxyphenyl)-5-fluoropicolinic acid]",60 to 74
3,"COC(=O)c1nc(-c2ccc(C#N)cc2OC)c(F)cc1Cl [F351, Methyl 3-chloro-6-(4-cyano-2-methoxyphenyl)-5-fluoropicolinate]",30 to 44

# Same assay, conditions: post-emergence, 336 h, IPOHE: ivy-leaf morning glory (Ipomoea hederacea), 140 g ai/ha, 14 days after application, read-out: Visual Growth Reduction (%) 14 Days After Application, IPOHE
row,Structure (SMILES),pest or weed control at 140 g/ha [%]
1,"COC(=O)c1nc(-c2ccc(N)cc2Cl)c(F)cc1Cl [F358, Methyl 6-(4-amino-2-chlorophenyl)-3-chloro-5-fluoropicolinate]",0 to 29
2,"COc1c(-c2nc(C(=O)O)c(Cl)cc2F)ccc(C(F)F)c1F [F230, 3-Chloro-6-(4-(difluoromethyl)-3-fluoro-2-methoxyphenyl)-5-fluoropicolinic acid]",95 to 100
3,"COC(=O)c1nc(-c2ccc(C#N)cc2OC)c(F)cc1Cl [F351, Methyl 3-chloro-6-(4-cyano-2-methoxyphenyl)-5-fluoropicolinate]",95 to 100

# Same assay, conditions: post-emergence, 336 h, KCHSC: kochia (Bassia scoparia), 140 g ai/ha, 14 days after application, read-out: Visual Growth Reduction (%) 14 Days After Application, KCHSC
row,Structure (SMILES),pest or weed control at 140 g/ha [%]
1,"COC(=O)c1nc(-c2ccc(N)cc2Cl)c(F)cc1Cl [F358, Methyl 6-(4-amino-2-chlorophenyl)-3-chloro-5-fluoropicolinate]",0 to 29
2,"COc1c(-c2nc(C(=O)O)c(Cl)cc2F)ccc(C(F)F)c1F [F230, 3-Chloro-6-(4-(difluoromethyl)-3-fluoro-2-methoxyphenyl)-5-fluoropicolinic acid]",95 to 100
3,"COC(=O)c1nc(-c2ccc(C#N)cc2OC)c(F)cc1Cl [F351, Methyl 3-chloro-6-(4-cyano-2-methoxyphenyl)-5-fluoropicolinate]",30 to 44

# Same assay, conditions: post-emergence, 336 h, ORYSA: rice (Oryza sativa), 140 g ai/ha, 14 days after application, read-out: Visual Growth Reduction (%) 14 Days After Application, ORYSA
row,Structure (SMILES),pest or weed control at 140 g/ha [%]
1,"COC(=O)c1nc(-c2ccc(N)cc2Cl)c(F)cc1Cl [F358, Methyl 6-(4-amino-2-chlorophenyl)-3-chloro-5-fluoropicolinate]",0 to 29
2,"COc1c(-c2nc(C(=O)O)c(Cl)cc2F)ccc(C(F)F)c1F [F230, 3-Chloro-6-(4-(difluoromethyl)-3-fluoro-2-methoxyphenyl)-5-fluoropicolinic acid]",0 to 29
3,"COC(=O)c1nc(-c2ccc(C#N)cc2OC)c(F)cc1Cl [F351, Methyl 3-chloro-6-(4-cyano-2-methoxyphenyl)-5-fluoropicolinate]",0 to 29

# Same assay, conditions: post-emergence, 336 h, SETFA: giant foxtail (Setaria faberi), 140 g ai/ha, 14 days after application, read-out: Visual Growth Reduction (%) 14 Days After Application, SETFA
row,Structure (SMILES),pest or weed control at 140 g/ha [%]
1,"COC(=O)c1nc(-c2ccc(N)cc2Cl)c(F)cc1Cl [F358, Methyl 6-(4-amino-2-chlorophenyl)-3-chloro-5-fluoropicolinate]",0 to 29
2,"COc1c(-c2nc(C(=O)O)c(Cl)cc2F)ccc(C(F)F)c1F [F230, 3-Chloro-6-(4-(difluoromethyl)-3-fluoro-2-methoxyphenyl)-5-fluoropicolinic acid]",30 to 44
3,"COC(=O)c1nc(-c2ccc(C#N)cc2OC)c(F)cc1Cl [F351, Methyl 3-chloro-6-(4-cyano-2-methoxyphenyl)-5-fluoropicolinate]",75 to 84

# Same assay, conditions: post-emergence, 336 h, SORVU: grain sorghum (Sorghum vulgare), 140 g ai/ha, 14 days after application, read-out: Visual Growth Reduction (%) 14 Days After Application, SORVU
row,Structure (SMILES),pest or weed control at 140 g/ha [%]
1,"COC(=O)c1nc(-c2ccc(N)cc2Cl)c(F)cc1Cl [F358, Methyl 6-(4-amino-2-chlorophenyl)-3-chloro-5-fluoropicolinate]",0 to 29
2,"COc1c(-c2nc(C(=O)O)c(Cl)cc2F)ccc(C(F)F)c1F [F230, 3-Chloro-6-(4-(difluoromethyl)-3-fluoro-2-methoxyphenyl)-5-fluoropicolinic acid]",60 to 74
3,"COC(=O)c1nc(-c2ccc(C#N)cc2OC)c(F)cc1Cl [F351, Methyl 3-chloro-6-(4-cyano-2-methoxyphenyl)-5-fluoropicolinate]",75 to 84

# Same assay, conditions: post-emergence, 336 h, STEME: common chickweed (Stellaria media), 140 g ai/ha, 14 days after application, read-out: Visual Growth Reduction (%) 14 Days After Application, STEME
row,Structure (SMILES),pest or weed control at 140 g/ha [%]
1,"COC(=O)c1nc(-c2ccc(N)cc2Cl)c(F)cc1Cl [F358, Methyl 6-(4-amino-2-chlorophenyl)-3-chloro-5-fluoropicolinate]",0 to 29
2,"COc1c(-c2nc(C(=O)O)c(Cl)cc2F)ccc(C(F)F)c1F [F230, 3-Chloro-6-(4-(difluoromethyl)-3-fluoro-2-methoxyphenyl)-5-fluoropicolinic acid]",0 to 29
3,"COC(=O)c1nc(-c2ccc(C#N)cc2OC)c(F)cc1Cl [F351, Methyl 3-chloro-6-(4-cyano-2-methoxyphenyl)-5-fluoropicolinate]",0 to 29

# Same assay, conditions: post-emergence, 336 h, TRZAS: wheat, spring (Triticum aestivum), 140 g ai/ha, 14 days after application, read-out: Visual Growth Reduction (%) 14 Days After Application, TRZAS
row,Structure (SMILES),pest or weed control at 140 g/ha [%]
1,"COC(=O)c1nc(-c2ccc(N)cc2Cl)c(F)cc1Cl [F358, Methyl 6-(4-amino-2-chlorophenyl)-3-chloro-5-fluoropicolinate]",0 to 29
2,"COc1c(-c2nc(C(=O)O)c(Cl)cc2F)ccc(C(F)F)c1F [F230, 3-Chloro-6-(4-(difluoromethyl)-3-fluoro-2-methoxyphenyl)-5-fluoropicolinic acid]",0 to 29
3,"COC(=O)c1nc(-c2ccc(C#N)cc2OC)c(F)cc1Cl [F351, Methyl 3-chloro-6-(4-cyano-2-methoxyphenyl)-5-fluoropicolinate]",0 to 29

# Same assay, conditions: post-emergence, 336 h, blackgrass (Alopecurus myosuroides), 14 Days After Application, 140 g ai/ha, read-out: Visual Growth Reduction (%) ALOMY
row,Structure (SMILES),pest or weed control at 140 g/ha [%]
1,"COC(=O)c1nc(-c2ccc(N)cc2Cl)c(F)cc1Cl [F358, Methyl 6-(4-amino-2-chlorophenyl)-3-chloro-5-fluoropicolinate]",0 to 29
2,"COc1c(-c2nc(C(=O)O)c(Cl)cc2F)ccc(C(F)F)c1F [F230, 3-Chloro-6-(4-(difluoromethyl)-3-fluoro-2-methoxyphenyl)-5-fluoropicolinic acid]",0 to 29
3,"COC(=O)c1nc(-c2ccc(C#N)cc2OC)c(F)cc1Cl [F351, Methyl 3-chloro-6-(4-cyano-2-methoxyphenyl)-5-fluoropicolinate]",0 to 29

# Same assay, conditions: post-emergence, 336 h, canada thistle (Cirsium arvense), 14 Days After Application, 140 g ai/ha, read-out: Visual Growth Reduction (%) CIRAR
row,Structure (SMILES),pest or weed control at 140 g/ha [%]
1,"COC(=O)c1nc(-c2ccc(N)cc2Cl)c(F)cc1Cl [F358, Methyl 6-(4-amino-2-chlorophenyl)-3-chloro-5-fluoropicolinate]",0 to 29
2,"COc1c(-c2nc(C(=O)O)c(Cl)cc2F)ccc(C(F)F)c1F [F230, 3-Chloro-6-(4-(difluoromethyl)-3-fluoro-2-methoxyphenyl)-5-fluoropicolinic acid]",95 to 100
3,"COC(=O)c1nc(-c2ccc(C#N)cc2OC)c(F)cc1Cl [F351, Methyl 3-chloro-6-(4-cyano-2-methoxyphenyl)-5-fluoropicolinate]",0 to 29

# Same assay, conditions: post-emergence, 336 h, crabgrass (Digitaria sanguinalis), 14 Days After Application, 140 g ai/ha, read-out: Visual Growth Reduction (%) DIGSA
row,Structure (SMILES),pest or weed control at 140 g/ha [%]
1,"COC(=O)c1nc(-c2ccc(N)cc2Cl)c(F)cc1Cl [F358, Methyl 6-(4-amino-2-chlorophenyl)-3-chloro-5-fluoropicolinate]",0 to 29
2,"COc1c(-c2nc(C(=O)O)c(Cl)cc2F)ccc(C(F)F)c1F [F230, 3-Chloro-6-(4-(difluoromethyl)-3-fluoro-2-methoxyphenyl)-5-fluoropicolinic acid]",0 to 29
3,"COC(=O)c1nc(-c2ccc(C#N)cc2OC)c(F)cc1Cl [F351, Methyl 3-chloro-6-(4-cyano-2-methoxyphenyl)-5-fluoropicolinate]",30 to 44

# Same assay, conditions: post-emergence, 336 h, lambsquarters (Chenopodium album), 14 Days After Application, 140 g ai/ha, read-out: Visual Growth Reduction (%) CHEAL
row,Structure (SMILES),pest or weed control at 140 g/ha [%]
1,"COC(=O)c1nc(-c2ccc(N)cc2Cl)c(F)cc1Cl [F358, Methyl 6-(4-amino-2-chlorophenyl)-3-chloro-5-fluoropicolinate]",0 to 29
2,"COc1c(-c2nc(C(=O)O)c(Cl)cc2F)ccc(C(F)F)c1F [F230, 3-Chloro-6-(4-(difluoromethyl)-3-fluoro-2-methoxyphenyl)-5-fluoropicolinic acid]",95 to 100
3,"COC(=O)c1nc(-c2ccc(C#N)cc2OC)c(F)cc1Cl [F351, Methyl 3-chloro-6-(4-cyano-2-methoxyphenyl)-5-fluoropicolinate]",75 to 84

# Same assay, conditions: post-emergence, 336 h, redroot pigweed (Amaranthus retroflexus), 14 Days After Application, 140 g ai/ha, read-out: Visual Growth Reduction (%) AMARE
row,Structure (SMILES),pest or weed control at 140 g/ha [%]
1,"COC(=O)c1nc(-c2ccc(N)cc2Cl)c(F)cc1Cl [F358, Methyl 6-(4-amino-2-chlorophenyl)-3-chloro-5-fluoropicolinate]",0 to 29
2,"COc1c(-c2nc(C(=O)O)c(Cl)cc2F)ccc(C(F)F)c1F [F230, 3-Chloro-6-(4-(difluoromethyl)-3-fluoro-2-methoxyphenyl)-5-fluoropicolinic acid]",95 to 100
3,"COC(=O)c1nc(-c2ccc(C#N)cc2OC)c(F)cc1Cl [F351, Methyl 3-chloro-6-(4-cyano-2-methoxyphenyl)-5-fluoropicolinate]",60 to 74

# Same assay, conditions: post-emergence, 336 h, wild oat (Avena fatua), 14 Days After Application, 140 g ai/ha, read-out: Visual Growth Reduction (%) AVEFA
row,Structure (SMILES),pest or weed control at 140 g/ha [%]
1,"COC(=O)c1nc(-c2ccc(N)cc2Cl)c(F)cc1Cl [F358, Methyl 6-(4-amino-2-chlorophenyl)-3-chloro-5-fluoropicolinate]",0 to 29
2,"COc1c(-c2nc(C(=O)O)c(Cl)cc2F)ccc(C(F)F)c1F [F230, 3-Chloro-6-(4-(difluoromethyl)-3-fluoro-2-methoxyphenyl)-5-fluoropicolinic acid]",0 to 29
3,"COC(=O)c1nc(-c2ccc(C#N)cc2OC)c(F)cc1Cl [F351, Methyl 3-chloro-6-(4-cyano-2-methoxyphenyl)-5-fluoropicolinate]",0 to 29

# Same assay, conditions: post-emergence, 336 h, yellow nutsedge (Cyperus esculentus), 14 Days After Application, 140 g ai/ha, read-out: Visual Growth Reduction (%) CYPES
row,Structure (SMILES),pest or weed control at 140 g/ha [%]
1,"COC(=O)c1nc(-c2ccc(N)cc2Cl)c(F)cc1Cl [F358, Methyl 6-(4-amino-2-chlorophenyl)-3-chloro-5-fluoropicolinate]",0 to 29
2,"COc1c(-c2nc(C(=O)O)c(Cl)cc2F)ccc(C(F)F)c1F [F230, 3-Chloro-6-(4-(difluoromethyl)-3-fluoro-2-methoxyphenyl)-5-fluoropicolinic acid]",0 to 29
3,"COC(=O)c1nc(-c2ccc(C#N)cc2OC)c(F)cc1Cl [F351, Methyl 3-chloro-6-(4-cyano-2-methoxyphenyl)-5-fluoropicolinate]",0 to 29
